Target: T1, Gamma-aminobutyric acid receptor subunit alpha-1/beta-2/gamma-2 (Homo sapiens, UniProt P14867+P18507+P47870)
T1 sequence (P14867 whole entry): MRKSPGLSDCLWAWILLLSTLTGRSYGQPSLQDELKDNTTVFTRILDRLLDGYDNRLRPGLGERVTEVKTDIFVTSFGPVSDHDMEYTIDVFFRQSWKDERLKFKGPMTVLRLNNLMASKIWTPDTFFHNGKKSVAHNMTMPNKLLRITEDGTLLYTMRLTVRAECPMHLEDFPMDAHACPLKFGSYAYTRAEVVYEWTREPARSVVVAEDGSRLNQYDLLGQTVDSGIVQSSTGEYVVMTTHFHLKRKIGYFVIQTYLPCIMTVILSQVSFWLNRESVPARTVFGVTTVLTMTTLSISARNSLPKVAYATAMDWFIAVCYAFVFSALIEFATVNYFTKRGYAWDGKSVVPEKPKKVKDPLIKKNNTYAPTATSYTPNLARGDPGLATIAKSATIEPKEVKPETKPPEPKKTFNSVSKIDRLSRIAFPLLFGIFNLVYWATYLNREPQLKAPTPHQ
T1 sequence (P18507 whole entry): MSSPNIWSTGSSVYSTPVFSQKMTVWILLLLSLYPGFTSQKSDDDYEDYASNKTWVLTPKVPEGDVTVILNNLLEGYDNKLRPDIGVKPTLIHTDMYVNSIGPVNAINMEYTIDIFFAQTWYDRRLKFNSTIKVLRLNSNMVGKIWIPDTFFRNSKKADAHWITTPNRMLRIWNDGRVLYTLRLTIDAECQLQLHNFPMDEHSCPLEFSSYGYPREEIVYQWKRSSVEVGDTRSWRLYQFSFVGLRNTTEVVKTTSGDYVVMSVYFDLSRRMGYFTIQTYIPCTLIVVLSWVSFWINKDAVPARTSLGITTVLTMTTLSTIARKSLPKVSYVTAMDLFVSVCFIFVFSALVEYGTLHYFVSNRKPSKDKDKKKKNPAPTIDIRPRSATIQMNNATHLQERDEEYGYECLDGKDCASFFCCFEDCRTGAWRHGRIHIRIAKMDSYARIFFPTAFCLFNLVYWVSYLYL
T1 sequence (P47870 whole entry): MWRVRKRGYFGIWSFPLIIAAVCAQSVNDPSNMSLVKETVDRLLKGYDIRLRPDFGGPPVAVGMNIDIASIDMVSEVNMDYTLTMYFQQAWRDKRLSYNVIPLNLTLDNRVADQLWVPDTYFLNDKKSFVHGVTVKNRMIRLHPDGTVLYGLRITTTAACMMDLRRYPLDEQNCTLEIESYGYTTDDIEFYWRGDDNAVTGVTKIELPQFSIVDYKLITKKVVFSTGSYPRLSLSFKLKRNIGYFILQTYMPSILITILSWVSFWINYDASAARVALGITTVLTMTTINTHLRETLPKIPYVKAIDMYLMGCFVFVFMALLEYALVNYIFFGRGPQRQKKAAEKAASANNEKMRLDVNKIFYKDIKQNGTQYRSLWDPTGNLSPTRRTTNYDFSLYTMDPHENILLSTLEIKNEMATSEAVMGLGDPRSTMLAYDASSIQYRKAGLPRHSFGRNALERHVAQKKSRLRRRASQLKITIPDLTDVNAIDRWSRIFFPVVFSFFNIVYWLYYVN
Test: Positive allosteric modulation of human GABAA receptor alpha1beta2gamma2L expressed in Xenopus laevis oocytes assessed as potentiation of GABA-induced current by measuring GABA EC50 at 1.4 uM incubated for 15 to 25 secs by two-electrode voltage clamp assay (Rvb = […])

## CC(=O)[C@H]1CC[C@H]2[C@@H]3CC[C@H]4C[C@H](O)CC[C@]4(C)[C@H]3C3(C[C@]12C)N=N3
  EC50: 1.23 µM

## CC(=O)[C@H]1CC[C@H]2[C@@H]3CC[C@H]4C[C@H](O)CC[C@]4(C)[C@H]3[C@@H](OC(=O)c3c(F)c(F)c(N=[N+]=[N-])c(F)c3F)C[C@]12C
  EC50: 0.07 µM

Source: BindingDB's records for doi:10.1016/j.ejmech.2017.04.043 (University of Illinois At Chicago, 2017)
